Measured values from paper PMC6326523, “A high-throughput screen to identify novel small molecule inhibitors of the Werner Syndrome Helicase-Nuclease (WRN)” (PLoS ONE, 2019).

Tested on: U2-OS cells
Assay: U2-OS cell proliferation assay (WST-1)
Assay type: cell-based, human
Settings: 100 μM; for Effect on proliferation of U2-OS cells: Day 0 through Day 3
Method: WRN inhibitors were diluted in DMSO to a concentration 100-fold higher than their final concentrations. U2-OS cells in culture were counted, spun down and resuspended to 35,000 cells/mL in DMEM with 10% FBS and Pen/Strep antibiotic. For each cell condition, 15 μL of DMSO or inhibitor was added to 1.5 ml of U2-OS cells in DMEM or DMEM alone. One hundred μL of each cell condition was plated in triplicate on each of four 96-well plates representing days 0–3. Ten μL of WST-1 cell proliferation reagent (Roche) was added to the day 0 plate and readings were taken 2 hr later using a plate reader set to 450 nm. WST-1 cell proliferation reagent was added to plates on days 1–3 and readings were taken after 2 hr incubation. Percent cell proliferation was normalized to cells in the presence of DMSO with the background OD450 of DMEM with each drug subtracted out.
Fig 9 Effects of WRN helicase inhibitors on cancer cell proliferation. (A) Cell proliferation of HeLa 1.2.11 cells treated with 50 μM NCGC00029283-03, NCGC00063279-03, NCGC00357377-01 and NSC 617145 (positive control) or vehicle (DMSO) on Day 0 and Day 3 as measured using the WST-1 cell proliferation reagent. (B) Cell proliferation of U2-OS cells treated with increasing amounts of NCGC00029283-03 (0–100 μM) from Day 0 through Day 3. (C) Cell proliferation of U2-OS cells treated with increasing amounts of NCGC00063279-03 (0–100 μM) from Day 0 through Day 3. (D) Cell proliferation of U2-OS cells treated with 100 μM NCGC00357377-01 from Day 0 through Day 3.
HeLa cells are characterized by reduced expression of wild-type p53 as well as an inability to increase p53 levels after DNA damage due to human papillomavirus (HPV) elements. This raised the possibility that p53 status may play a role in the ability of small molecule WRN helicase inhibitors to affect cell proliferation. In addition, HeLa 1.2.11 cells are characterized by relatively long telomeres and use telomerase to maintain telomere length. Since WRN is implicated in the Alternative Lengthening of Telomeres (ALT) pathway, cells that are dependent on the ALT pathway may be more sensitive to WRN inhibitors as well. To address this possibility, we treated U2-OS osteosarcoma cells (which express wild-type p53 and utilize the ALT pathway for keeping very long telomeres) with all three compounds. In this case, we observed a 50% reduction in U2-OS cell proliferation two days after initial exposure to NCGC00029283-03 (100 μM).

SMILES: Cc1ccc(-c2csc(NS(=O)(=O)c3cccc(F)c3)n2)o1 [MLS002251300-02]
- Effect on proliferation of U2-OS cells (listed as NCGC00357377): did not reduce cell proliferation
- Effect on proliferation of U2-OS cells (listed as NCGC00357377-01): did not have any effect

SMILES: COc1ccc2nc(O)c(-c3noc(-c4ccc(F)cc4)n3)cc2c1 [NCGC00029283-02]
- Effect on proliferation of U2-OS cells: also detectable after three days
- Reduction in U2-OS cell proliferation (two days after initial exposure): 50%

SMILES: COc1ccc2nc(O)c(-c3noc(-c4ccccc4)n3)cc2c1 [NCGC00063279-02]
- Reduction in U2-OS cell proliferation (after three days exposure): 40%
